According to ChEMBL document CHEMBL5344424, “3-Hydroxypyridin-4(1H)-one Derivatives as pqs Quorum Sensing Inhibitors Attenuate Virulence and Reduce Antibiotic Resistance in Pseudomonas aeruginosa” (J Med Chem, 2023):
pIC50, pKd: −log10 of the molar value. Active and inactive are the calls of the source. The rule behind the calls is not given here.

Legend:
Pseudomonas aeruginosa [1] = test: Synergistic antibacterial activity against Pseudomonas aeruginosa PAO1 infected in Caenorhabditis elegans assessed as worm survival rate at 10 uM incubated for 72 hrs in presence of ciprofloxacin by bright-field microscopy relative to control; format: functional
Pseudomonas aeruginosa [2] = test: Synergistic antibacterial activity against Pseudomonas aeruginosa clinical isolate 1121 assessed as reduction in bacterial viability at 10 uM incubated for 24 hrs in presence of ciprofloxacin at 1/2 to 1/8 times of MIC; format: functional, organism-based
Pseudomonas aeruginosa [3] = test: Synergistic antibacterial activity against Pseudomonas aeruginosa clinical isolate FB assessed as reduction in bacterial viability at 10 uM incubated for 24 hrs in presence of ciprofloxacin at 1/2 to 1/8 times of MIC; format: functional, organism-based
Pseudomonas aeruginosa [4] = test: Anti-motility activity against Pseudomonas aeruginosa PAO1 assessed as reduction in swimming incubated for 16 hrs by crystal violet staining analysis; format: functional, organism-based
[5] = Inhibition of quorum sensing system in Pseudomonas aeruginosa PAO1 assessed as inhibition of elastase production at 10 uM incubated for 24 hrs by elastin-congo red dye based optical density based analysis relative to control
Pseudomonas aeruginosa [6] = test: Synergistic antibacterial activity against Pseudomonas aeruginosa clinical isolate FB assessed as reduction in bacterial viability at 10 uM incubated for 24 hrs in presence of tobramycin at 1/2 to 1/8 times of MIC; format: functional, organism-based
Pseudomonas aeruginosa [7] = test: Synergistic antibacterial activity against Pseudomonas aeruginosa PAO1 infected in Caenorhabditis elegans assessed as worm survival rate at 50 uM incubated for 72 hrs in presence of ciprofloxacin by bright-field microscopy relative to control; format: functional
Pseudomonas aeruginosa [8] = test: Synergistic antibacterial activity against Pseudomonas aeruginosa clinical isolate 1129 assessed as reduction in bacterial viability at 10 uM incubated for 24 hrs in presence of tobramycin at 1/2 to 1/8 times of MIC; format: functional, organism-based
Pseudomonas aeruginosa [9] = test: Antibacterial activity against Pseudomonas aeruginosa PAO1 assessed as inhibition of biofilm formation incubated for 24 hrs by crystal violet staining analysis; format: functional, organism-based
Pseudomonas aeruginosa [10] = test: Anti-motility activity against Pseudomonas aeruginosa PAO1 assessed as reduction in twitching incubated for 16 hrs by crystal violet staining analysis; format: functional, organism-based
Pseudomonas aeruginosa [11] = test: Antivirulence activity against Pseudomonas aeruginosa clinical isolate 1121 assessed as reduction of pyocyanin production at 10 uM incubated for 24 hrs by optical density based analysis relative to control; format: functional; parameters: scale not given: the % may be the effect or the level left
Pseudomonas aeruginosa [12] = test: Synergistic antibacterial activity against Pseudomonas aeruginosa clinical isolate 1167 assessed as reduction in bacterial viability at 10 uM incubated for 24 hrs in presence of ciprofloxacin at 1/2 to 1/8 times of MIC; format: functional, organism-based
Pseudomonas aeruginosa [13] = test: Synergistic antibacterial activity against Pseudomonas aeruginosa clinical isolate 1167 assessed as reduction in bacterial viability at 10 uM incubated for 24 hrs in presence of tobramycin at 1/2 to 1/8 times of MIC; format: functional, organism-based
[14] = Inhibition of quorum sensing system in Pseudomonas aeruginosa PAO1 assessed as inhibition of rhamnolipid production at 0.625 to 20 uM incubated for 24 hrs by optical density based analysis; details: dose 0.625-20 µM
Pseudomonas aeruginosa [15] = test: Antibacterial activity against Pseudomonas aeruginosa PAO1 infected in Caenorhabditis elegans assessed as increase in worm survival by measuring survival time at 50 uM by bright-field microscopy; format: functional
Pseudomonas aeruginosa [16] = test: Anti-motility activity against Pseudomonas aeruginosa PAO1 assessed as reduction in swarming incubated for 16 hrs by crystal violet staining analysis; format: functional, organism-based
Pseudomonas aeruginosa [17] = test: Inhibition of iron homeostasis in Pseudomonas aeruginosa PAO1 assessed as decrease in pyochelin production at 1.25 to 20 uM incubated for 24 hrs by fluorescence based microplate reader analysis; format: functional, organism-based; details: dose 1.25-20 µM
Pseudomonas aeruginosa [18] = test: Antivirulence activity against Pseudomonas aeruginosa PA14 assessed as reduction of pyocyanin production at 10 uM incubated for 24 hrs by optical density based analysis relative to control; format: functional; parameters: scale not given: the % may be the effect or the level left
[19] = Inhibition of quorum sensing system in Pseudomonas aeruginosa PAO1 transfected with lasB-gfp reporter assessed as decrease in GFP fluorescence expression at 0.625 to 10 uM incubated for 16 hrs by microplate reader assay; details: dose 0.625-10 µM
Vero [20] = test: Cytotoxicity against African green monkey Vero cells at 1.56 to 50 uM incubated for 24 hrs by MTT assay; format: toxicity, cell-based; details: chlorocebus sabaeus, dose 1.56-50 µM
[21] = Inhibition of quorum sensing system in Pseudomonas aeruginosa PAO1 transfected with GFP reporter assessed as decrease in GFP fluorescence expression at 1.25 to 10 uM incubated for 16 hrs by microplate reader assay; details: dose 1.25-10 µM
[22] = Toxicity in Caenorhabditis elegans assessed as effect on survival at 100 uM incubated for 60 hrs by bright-field microscopy
Pseudomonas aeruginosa [23] = test: Synergistic antibacterial activity against Pseudomonas aeruginosa clinical isolate 1121 assessed as reduction in bacterial viability at 10 uM incubated for 24 hrs in presence of tobramycin at 1/2 to 1/8 times of MIC; format: functional, organism-based
[24] = Inhibition of quorum sensing system in Pseudomonas aeruginosa PAO1 assessed as inhibition of pyocyanin production incubated for 24 hrs by optical density based analysis
Pseudomonas aeruginosa [25] = test: Antivirulence activity against Pseudomonas aeruginosa clinical isolate FB assessed as reduction of pyocyanin production at 10 uM incubated for 24 hrs by optical density based analysis relative to control; format: functional; parameters: scale not given: the % may be the effect or the level left
Pseudomonas aeruginosa [26] = test: Synergistic antibacterial activity against Pseudomonas aeruginosa PAO1 infected in Caenorhabditis elegans assessed as worm survival rate at 10 uM incubated for 72 hrs in presence of tobramycin by bright-field microscopy relative to control; format: functional
Pseudomonas aeruginosa [27] = test: Synergistic antibacterial activity against Pseudomonas aeruginosa clinical isolate 1129 assessed as reduction in bacterial viability at 10 uM incubated for 24 hrs in presence of ciprofloxacin at 1/2 to 1/8 times of MIC; format: functional, organism-based
Pseudomonas aeruginosa [28] = test: Synergistic antibacterial activity against Pseudomonas aeruginosa PAO1 assessed as reduction in bacterial viability at 10 uM incubated for 24 hrs in presence of tobramycin at 1/2 to 1/8 times of MIC; format: functional, organism-based
[29] = Inhibition of quorum sensing system in Pseudomonas aeruginosa PAO1 assessed as inhibition of pyocyanin production at 10 uM incubated for 24 hrs by optical density based analysis relative to control
Pseudomonas aeruginosa [30] = test: Antibacterial activity against Pseudomonas aeruginosa PAO1 infected in Caenorhabditis elegans assessed as worm survival rate at 0.125 ug/ml incubated for 72 hrs by bright-field microscopy relative to control; format: functional
Pseudomonas aeruginosa [31] = test: Antibacterial activity against Pseudomonas aeruginosa PAO1 assessed as inhibition of biofilm formation at 50 uM incubated for 24 hrs by crystal violet staining analysis relative to control; format: functional; parameters: scale not given: the % may be the effect or the level left
Pseudomonas aeruginosa [32] = test: Inhibition of iron homeostasis in Pseudomonas aeruginosa PAO1 assessed as decrease in pyoverdine production at 5 to 20 uM incubated for 24 hrs by fluorescence based microplate reader analysis; format: functional, organism-based; details: dose 5-20 µM
[33] = Metal chelating activity assessed as compound-Fe3+ complex formation by measuring fluorescence signal by fluorescence spectrophotometry
[34] = Inhibition of quorum sensing system in Pseudomonas aeruginosa PAO1 transfected with rhlA-gfp reporter assessed as decrease in GFP fluorescence expression at 0.625 to 10 uM incubated for 16 hrs by microplate reader assay; details: dose 0.625-10 µM
[35] = Inhibition of quorum sensing system in Pseudomonas aeruginosa PAO1 assessed as inhibition of pyocyanin production at 0.625 uM incubated for 24 hrs by optical density based analysis relative to control
Pseudomonas aeruginosa [36] = test: Antibacterial activity against Pseudomonas aeruginosa PAO1 infected in Caenorhabditis elegans assessed as increase in worm survival by measuring survival time at 10 uM by bright-field microscopy; format: functional
Pseudomonas aeruginosa [37] = test: Synergistic antibacterial activity against Pseudomonas aeruginosa PAO1 assessed as reduction in bacterial viability at 10 uM incubated for 24 hrs in presence of ciprofloxacin at 1/2 to 1/8 times of MIC; format: functional, organism-based
Pseudomonas aeruginosa [38] = test: Synergistic antibacterial activity against Pseudomonas aeruginosa PAO1 infected in Caenorhabditis elegans assessed as worm survival rate at 50 uM incubated for 72 hrs in presence of tobramycin by bright-field microscopy relative to control; format: functional
[39] = Inhibition of quorum sensing system in Pseudomonas aeruginosa PAO1 transfected with pqsA-gfp reporter assessed as decrease in GFP fluorescence expression incubated for 16 hrs by microplate reader assay
[40] = Binding affinity to recombinant PqsR LBD (94 to 332 residues) (unknown origin) expressed in Escherichia coli BL21 (DE3) assessed as dissociation constant by isothermal titration calorimetry
Vero [41] = test: Cytotoxicity against African green monkey Vero cells at 100 uM incubated for 24 hrs by MTT assay; format: toxicity, cell-based; details: chlorocebus sabaeus
Pseudomonas aeruginosa [42] = test: Antibacterial activity against Pseudomonas aeruginosa PAO1 infected in Caenorhabditis elegans assessed as worm survival rate at 2.5 ug/ml incubated for 60 hrs by bright-field microscopy relative to control; format: functional
Pseudomonas aeruginosa [43] = test: Synergistic antibacterial activity against Pseudomonas aeruginosa PAO1 infected in Caenorhabditis elegans assessed as worm survival rate at 2.5 ug/ml incubated for 72 hrs in presence of compound 16e by bright-field microscopy relative to control; format: functional

Cc1cc(=O)c(O)c(CNCc2cn(-c3ccc(Oc4ccccc4)cc3)nn2)n1C
survival at 10 µM (Pseudomonas aeruginosa [1]): 35.7%
Activity (Pseudomonas aeruginosa [2]): Active
Activity (Pseudomonas aeruginosa [3]): Active
Activity (Pseudomonas aeruginosa [4]): Dose-Dependent Effect
inhibition [5]: 26.7%
Activity (Pseudomonas aeruginosa [6]): Active
survival at 50 µM (Pseudomonas aeruginosa [7]): 87.1%
Activity (Pseudomonas aeruginosa [8]): Active
Activity (Pseudomonas aeruginosa [9]): Dose-Dependent Effect
Activity (Pseudomonas aeruginosa [10]): Dose-Dependent Effect
Activity (Pseudomonas aeruginosa [11]): 41.1%
Activity (Pseudomonas aeruginosa [12]): inactive
Activity (Pseudomonas aeruginosa [13]): inactive
inhibition [14]: inactive
Survival (Pseudomonas aeruginosa [15]): 36 h
Activity (Pseudomonas aeruginosa [16]): Dose-Dependent Effect
inhibition (Pseudomonas aeruginosa [17]): inactive
Activity (Pseudomonas aeruginosa [18]): 50.9%
inhibition [19]: Active
Activity (Vero [20]): Non-Toxic
inhibition [21]: inactive
Activity [22]: Non-Toxic
Activity (Pseudomonas aeruginosa [23]): Active
pIC50 [24]: 5.57
Activity (Pseudomonas aeruginosa [25]): 32.2%
survival at 10 µM (Pseudomonas aeruginosa [26]): 46.7%
Activity (Pseudomonas aeruginosa [27]): Active
Activity (Pseudomonas aeruginosa [28]): Active
inhibition [29]: 69.9%
survival at 0.125 µg/mL (Pseudomonas aeruginosa [30]): 13.1%
Activity (Pseudomonas aeruginosa [31]): ~50%
inhibition (Pseudomonas aeruginosa [32]): inactive
Activity [33]: 22.4
inhibition [34]: inactive
inhibition [35]: 30%
Survival (Pseudomonas aeruginosa [36]): 30 h
Activity (Pseudomonas aeruginosa [37]): Active
survival at 50 µM (Pseudomonas aeruginosa [38]): 82.3%
pIC50 [39]: 5.43
pKd [40]: 5.96
Activity (Vero [41]): Toxic

NC[C@H]1O[C@H](O[C@H]2[C@H](O)[C@@H](O[C@H]3O[C@H](CO)[C@@H](O)[C@H](N)[C@H]3O)[C@H](N)C[C@@H]2N)[C@H](N)C[C@@H]1O [TOBRAMYCIN]
survival at 2.5 µg/mL (Pseudomonas aeruginosa [42]): 18.1%
survival at 2.5 µg/mL (Pseudomonas aeruginosa [43]): 46.7%
